Assay results: US20030181515A1, “Methods of using kavalactone compositions” (Kava Pharmaceuticals, Inc., a Delaware corporation, priority 2001, published 2003)
“Also recorded” adds a separate entry of the source.

Each compound was assayed on IL-12 (assay: IL-12 inhibitory assay in IFNγ-primed, LPS-stimulated human PBMC (ELISA)). Details: human PBMC primed with IFNγ, supernatants 20 h later, FIG. 1.
Format: cell-based
Procedure: This invention is based in part on the unexpected discovery that specific kavalactones inhibit production of IL-12, whose overproduction is implicated in a number of diseases and disease symptoms. The IL-12 inhibitory activity of six major kavalactones (e.g., desmethoxyyangonin, dihydrokawain, dihydromethysticin, kawain, methysticin, and yangonin) was measured using a cellular assay for determination of IL-12 cytokine inhibition. […] Thus, compositions containing one of the three active kavalactones, kawain, dihydrokawain, dihydromethysticin, or a combination thereof, are useful for treating disease or disease symptoms related to IL-12 overproduction.
Referring back to FIG. 1, six kavalactones were tested in an IL-12 inhibitory assay as follows: Lipopolysaccharide (LPS, Serratia marscencens) was obtained from Sigma (St. Louis, Mo.). Human recombinant IFNg was purchased from Boehringer Mannheim. (Mannheim, Germany). Human peripheral blood mononuclear cells were isolated by centrifugation using Ficall-Paque (Pharmacia Biotech, Uppsala, Sweden) and prepared in RPMI medium supplemented with 10% FCS and antibiotics in a 96-well plate with 1×10^6 cells/well. Human PBMC were primed with IFNγ (30 U/mL) for 16 h and then stimulated with […] of LPS in the presence of different concentrations of test compound. Cell-free supernatants were taken 20 h later for measurement of cytokines. Cell viability was assessed using the bioreduction of MTS [3-(4,5-dimethylthiazol-2-yl)-5-(3-carboxymethoxyphenyl)-2-(4-sulfophenyl)-2H-tetrazolium] (Promega, Madison, Wis.). Cell survival was estimated as the ratio of the absorbance in compound-treated groups versus compound-free control. Human IL-12 was assayed using ELISA kits (Endogen, Cambridge, Mass.), essentially according to the manufacturer's instructions. IL-12 inhibition can also be measured by other methods (e.g., in vivo, in vitro, animal models) of assaying for enzyme inhibition activity.
In the case of COC1=CC(=O)O[C@@H](CCc2ccccc2)C1 [dihydrokawain], the IL-12 inhibitory activity is reported as “much higher IL-12 inhibitory activity relative to the other kavalactones; also recorded: exhibit IL-12 inhibitory activity”.
COC1=CC(=O)O[C@@H](CCc2ccc3c(c2)OCO3)C1 [dihydromethysticin] was tested, and the IL-12 inhibitory activity was “much higher IL-12 inhibitory activity relative to the other kavalactones; also recorded: exhibit IL-12 inhibitory activity”.
For COC1=CC(=O)O[C@@H](/C=C/c2ccccc2)C1 [kawain], the IL-12 inhibitory activity was “much higher IL-12 inhibitory activity relative to the other kavalactones; also recorded: exhibit IL-12 inhibitory activity”.
